Test results: ChEMBL document CHEMBL1201862, “PubChem BioAssay data set” (2004)
Calls of active or inactive are those of the source.

Tests used:
cells [1] = experiment: cells
Major prion protein = Major prion protein (Homo sapiens, UniProt P04156); assay type: functional, cell-based
[2] = target: Long-chain-fatty-acid--AMP ligase FadD28 (Mycobacterium tuberculosis, UniProt P9WQ59); experiment: Fluorescence polarization aasay to screen for inhibitors that compete for the binding of FadD28 to a bisubstrate Measured in Biochemical System Using Plate Reader - 2147-01_Inhibitor_Dose_CherryPick_Activity.; assay type: functional, Mycobacterium tuberculosis H37Rv
fMet-Leu-Phe receptor = fMet-Leu-Phe receptor (Homo sapiens, UniProt P21462); experiment: FPR ligands, dose response (AID 519); assay type: functional
[3] = non-specific cell cytotoxicity, dose response, cytotoxicity control for PAX8 inhibitor project, plate reader, dry powder samples (AID 743021); assay type: functional, cell-based
Protein Wnt-3a = Protein Wnt-3a (Mus musculus, UniProt P27467); experiment: SAR analysis of small molecule antagonists of Gli-SUFU in a Wnt3a luminescent reporter assay.; assay type: functional
[4] = target: Disintegrin and metalloproteinase domain-containing protein 17 (Homo sapiens, UniProt P78536); experiment: exosite inhibitors of ADAM17, dose response, biochemical (AID 743260)
[5] = ADAM10 protease inhibitors, dose response, selectivity assay for ADAM17 exosite inhibitor project, biochemical, FRET peptide substrate, recombinant human ADAM10 (AID 743259);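 also: ADAM10 enzyme cleaving a FRET peptide substrate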
[6] = microbe, parasite or virus in culture; assay type: functional; conditions: Mycobacterium tuberculosis
cells [7] = assay type: functional, cell-based
[8] = target: T1, Nuclear receptor subfamily 0 group B member 1 (Homo sapiens, UniProt P51843); assay type: functional, cell-based;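 also: HEK293T cells transfected with SF-1 and DAX-1 plus StAR promoter luciferase reporter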
T1 sequence (P51843 whole entry): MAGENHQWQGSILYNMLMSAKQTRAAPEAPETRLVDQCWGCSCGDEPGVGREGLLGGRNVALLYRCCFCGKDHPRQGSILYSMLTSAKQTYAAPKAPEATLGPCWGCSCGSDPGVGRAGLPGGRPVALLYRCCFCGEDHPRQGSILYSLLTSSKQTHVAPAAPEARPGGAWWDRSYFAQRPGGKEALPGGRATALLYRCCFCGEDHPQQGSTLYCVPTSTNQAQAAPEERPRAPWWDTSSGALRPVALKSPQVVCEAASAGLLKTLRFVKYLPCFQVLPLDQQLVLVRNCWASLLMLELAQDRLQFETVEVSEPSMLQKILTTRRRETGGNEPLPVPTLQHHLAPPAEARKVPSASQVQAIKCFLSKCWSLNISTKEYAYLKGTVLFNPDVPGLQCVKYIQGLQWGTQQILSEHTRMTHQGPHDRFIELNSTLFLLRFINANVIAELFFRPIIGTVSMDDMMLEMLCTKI

Fatty acid synthase [9] = target: T2, Fatty acid synthase (Homo sapiens, UniProt P49327); experiment: FAS thioesterase domain inhibitors, dose response, biochemical, kinetic fluorescence intensity (AID 624326); assay type: functional;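 also: rate of fluorescence rise from hydrolysis of a fluorogenic O-methyl fluorescein ester substrate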
Fatty acid synthase [10] = target: T2, Fatty acid synthase; experiment: FAS thioesterase domain inhibitors, dose response, biochemical, endpoint fluorescence intensity, uHTS hits (AID 624327); assay type: functional;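 also: fluorescence from hydrolysis of an O-methyl fluorescein acyl ester substrate by the enzyme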
[11] = target: T3, Methionyl-tRNA synthetase, putative (Trypanosoma brucei brucei, UniProt Q38C91); assay type: functional, Trypanosoma brucei brucei strain 927/4 GUTat10.1
T3 sequence (Q38C91 whole entry): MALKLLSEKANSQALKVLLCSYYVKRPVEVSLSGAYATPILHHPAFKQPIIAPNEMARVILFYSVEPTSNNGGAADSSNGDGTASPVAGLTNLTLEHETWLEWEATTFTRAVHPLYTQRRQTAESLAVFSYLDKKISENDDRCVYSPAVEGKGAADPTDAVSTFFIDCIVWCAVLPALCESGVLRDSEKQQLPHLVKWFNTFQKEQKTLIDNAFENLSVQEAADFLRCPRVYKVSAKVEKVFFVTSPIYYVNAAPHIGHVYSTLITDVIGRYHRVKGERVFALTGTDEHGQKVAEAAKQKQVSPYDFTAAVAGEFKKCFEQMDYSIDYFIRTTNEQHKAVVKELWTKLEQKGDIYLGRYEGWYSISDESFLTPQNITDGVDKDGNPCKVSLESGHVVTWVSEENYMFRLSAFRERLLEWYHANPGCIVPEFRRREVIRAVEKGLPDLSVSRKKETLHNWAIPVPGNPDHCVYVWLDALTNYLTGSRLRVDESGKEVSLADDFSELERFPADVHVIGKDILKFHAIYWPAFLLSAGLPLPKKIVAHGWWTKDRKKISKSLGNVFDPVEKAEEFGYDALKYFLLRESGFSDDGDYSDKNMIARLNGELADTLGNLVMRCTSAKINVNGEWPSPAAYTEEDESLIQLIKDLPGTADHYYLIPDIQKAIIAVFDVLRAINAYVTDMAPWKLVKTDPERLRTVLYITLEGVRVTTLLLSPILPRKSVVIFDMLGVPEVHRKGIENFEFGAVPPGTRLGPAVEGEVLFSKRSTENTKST

[12] = Counterscreen for inhibitors of Trypanosoma brucei methionyl tRNA synthetase (MetRS): Luminescence-based cell-based high throughput dose response assay to identify compounds that are cytotoxic to Jurkat human T lymphocyte cells.; assay type: functional
[13] = target: T3, Methionyl-tRNA synthetase, putative; assay type: functional, Trypanosoma brucei brucei strain 927/4 GUTat10.1; remark: listed apart in the source
[14] = target: Photoreceptor-specific nuclear receptor (Homo sapiens, UniProt Q9Y5X4); assay type: functional, cell-based;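 also: CHO-S cells with Gal4-NCOR and VP16-NR2E3 two-hybrid luciferase reporter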

Q: What does the source list for `N#Cc1ccc(-c2nc3ccc(Br)cn3c2Cc2cccc(F)c2)cc1`?
A: IC50 (cells [1]): > 138 µM (inactive); IC50 (Major prion protein): 2.98 µM (active)

Q: For `O=c1c2c(O)cc(CSc3nnnn3-c3ccccc3)nc2[nH]n1-c1ccccc1`, which AC50 [2] is on record?
A: Its AC50 is > 100 µM (inactive).

Q: For `O=C(C1=C(O)C(=O)N(Cc2ccccc2)C1c1cccnc1)c1ccco1` (stereo not given), which Ki (fMet-Leu-Phe receptor) is on record?
A: Its Ki is 30.5 µM (inactive).

Q: For `Cn1c(SCC(=O)c2ccccc2)nnc1-c1ccccn1`, which AC50 [3] is on record?
A: Its AC50 is 51 µM (active).

Q: With `CCC(C)Nc1cc(NC(=O)c2ccccc2)ncn1` (stereo not given) as the compound, how does the IC50 (Protein Wnt-3a) read?
A: The IC50 was > 21.8 µM (inactive).

Q: Which results are given for `CCOc1ccc(-c2[nH]ncc2-c2ccc(Cl)cc2)c(O)c1`?
A: IC50 [4]: > 69.5 µM (inactive); IC50 [5]: 23.7 µM (inactive); CC50 [6]: > 40 µM (active)

Q: For `CCc1cc(C(=O)OC)c(NC(=O)C2CC(=O)NN2Cc2ccccc2)s1` (stereo not given), which IC50 [4] is on record?
A: The IC50 was > 69.5 µM (inactive).

Q: And the IC50 [5]?
A: The IC50 was > 69.5 µM (inactive).

Q: Which IC50 (cells [7]) does the source give for `CC1=C(C(=O)Nc2ccc(CC(=O)NCc3ccc(OC(C)C)cc3)cc2)SCCO1` here?
A: The IC50 was > 67.5 µM (inactive).

Q: What about the IC50 [8] of the same compound?
A: Its IC50 is > 67.5 µM (inactive).

Q: With `O=C(CN1C(=O)S/C(=C\c2ccccc2)C1=O)Nc1cc([N+](=O)[O-])ccc1O` as the compound, how does the IC50 (Fatty acid synthase [9]) read?
A: The IC50 was 1.83 µM (active).

Q: What about the IC50 (Fatty acid synthase [10]) of the same compound?
A: The IC50 was 2.94 µM (active).

Q: What about the AC50 [2] of the same compound?
A: Its AC50 is 61.2 µM (active).

Q: With `COc1cccc(NC(=O)CSc2nc3cc(Br)c[nH]c-3n2)c1` as the compound, how does the IC50 [11] read?
A: The IC50 was 2 µM (active).

Q: What about the IC50 [12] of the same compound?
A: Its IC50 is 83.3 µM (inactive).

Q: And the IC50 [13]?
A: Its IC50 is 4.03 µM (active).

Q: And the IC50 [14]?
A: Its IC50 is 0.377 µM (active).
